Test results: patent publication US7173062B2, “Method for the improvement of skin wrinkles using retinyl retinoate” (Enprani Co., Ltd., priority 2001, dated 2007)

Tested on: normal human fibroblast (Newborn)
Assay: Cell toxicity test (MTT method)
Type: cell-based
Conditions: comparison in words
Method: Cell toxicity of the compound of formula (1) is examined at concentrations ranging from 10^−6 to 10^−3%(W/V) using normal human fibroblast (Newborn), and the skin irritating property is examined by a patch test for the skin of normal adults. Further, the effect of increasing the collagen synthesis in a human fibroblast cell is measured to identify the cell regeneration effect of the compound of formula (1), photostability is identified by measuring ^1H NMR of the compound of formula (1) after the compound is irradiated by UV light (356 nm) at certain intervals of time, and thermal stability is identified by quantifying the amount at 40° C. (Experiments 1 to 5).
In order to verify the primary stability as a material for medicines and cosmetics, cell toxicity of the retinal retaliate of formula (1) was determined according to MTT method (see: Mossman T., Rapid calorimetric assay for cellular growth & amp;survival:application to proliferation & amp;cytotoxity assays. Journal of Immunological Methods 65, 55–63, 1983) using normal human fibroblast (Newborn) and the results are shown in FIG. 1.

## CC1=C(/C=C/C(C)=C/C=C/C(C)=C/COC(=O)/C=C(C)/C=C/C=C(C)/C=C/C2=C(C)CCCC2(C)C)C(C)(C)CCC1 [Compound of formula (1), Retinyl retinoate]
  cell toxicity (FIG. 1): lower intracellular toxicity than retinol, retinoic acid, or derivatives thereof
